Assay results from ChEMBL document CHEMBL3044533, “Alkyl, aryl, alkylarylquinoline, and related alkaloids” (2007).
In brackets after ≈: the same amount, converted by molar mass.

Experiments:
Type in all cases: functional
Ralstonia solanacearum = assay: Antibacterial activity against Ralstonia solanacearum
Rhizoctonia solani = assay: Growth inhibition of Rhizoctonia solani at 10 ug/ml; details: read-out: GI
Bipolaris oryzae = assay: Growth inhibition of Bipolaris oryzae at 10 ug/ml; details: read-out: GI
[1] = tested on: Agrobacterium tumefaciens; assay: Antibacterial activity against Agrobacterium tumefaciens
Globisporangium ultimum = assay: Growth inhibition of Pythium ultimum at 10 ug/ml; details: read-out: GI
Verticillium dahliae = assay: Growth inhibition of Verticillium dahliae at 10 ug/ml; details: read-out: GI
Pyricularia oryzae = assay: Growth inhibition of Magnaporthe oryzae at 10 ug/ml; details: read-out: GI
Fusarium oxysporum [2] = assay: Growth inhibition of Fusarium oxysporum at 10 ug/ml; details: read-out: GI
[3] = tested on: Clavibacter michiganensis; assay: Antibacterial activity against Clavibacter michiganensis
[4] = tested on: Pectobacterium carotovorum; assay: Antibacterial activity against Pectobacterium carotovorum
Gaeumannomyces graminis = assay: Growth inhibition of Gaeumannomyces graminis at 10 ug/ml; details: read-out: GI
[5] = tested on: Xanthomonas campestris pv. oryzae; assay: Antibacterial activity against Xanthomonas campestris pv. oryzae
[6] = tested on: Colletotrichum gloeosporioides; assay: Growth inhibition of Colletotrichum gloeosporioides at 100 uM after 48 hr by microtiter assay; details: read-out: GI
Plasmopara viticola = assay: Growth inhibition of Plasmopara viticola at 30 uM after 48 hr by microtiter assay; details: read-out: GI
Colletotrichum fragariae = assay: Growth inhibition of Colletotrichum fragariae at 300 uM after 48 hr by microtiter assay; details: read-out: GI
Phomopsis obscurans [7] = assay: Growth inhibition of Phomopsis obscurans at 30 uM after 48 hr by microtiter assay; details: Paraphomopsis obscurans, read-out: GI
Colletotrichum acutatum = assay: Growth inhibition of Colletotrichum acutatum at 300 uM after 48 hr by microtiter assay; details: read-out: GI
Fusarium oxysporum [8] = assay: Growth inhibition of Fusarium oxysporum at 300 uM after 48 hr by microtiter assay; details: read-out: GI
Phomopsis obscurans [9] = assay: Growth inhibition of Phomopsis obscurans at 100 uM after 48 hr by microtiter assay; details: Paraphomopsis obscurans, read-out: GI

| SMILES | MIC (Ralstonia solanacearum) | inhibition of growth at 10 µg/mL (Rhizoctonia solani) | inhibition of growth at 10 µg/mL (Bipolaris oryzae) | MIC [1] | inhibition of growth at 10 µg/mL (Globisporangium ultimum) | inhibition of growth at 10 µg/mL (Verticillium dahliae) | inhibition of growth at 10 µg/mL (Pyricularia oryzae) | inhibition of growth at 10 µg/mL (Fusarium oxysporum [2]) | MIC [3] | MIC [4] | inhibition of growth at 10 µg/mL (Gaeumannomyces graminis) | MIC [5] | inhibition of growth at 300 µM (Colletotrichum fragariae) | inhibition of growth at 300 µM (Colletotrichum acutatum) | inhibition of growth at 300 µM (Fusarium oxysporum [8]) | other results |
| --- | --- | --- | --- | --- | --- | --- | --- | --- | --- | --- | --- | --- | --- | --- | --- | --- |
| CCCCCC/C=C/Cc1[nH]c2ccccc2c(=O)c1C | > 20 mg/L | 58.1% | 68% | > 20 mg/L | 0% | 74.9% | 49.9% | 41.1% | 10 mg/L (≈ 35.3 µM) | > 20 mg/L | 54.7% | > 20 mg/L |  |  |  |  |
| Cn1c(CCCCCCc2ccc3c(c2)OCO3)cc(=O)c2ccccc21 |  |  |  |  |  |  |  |  |  |  |  |  | 57% | 57% |  | inhibition of growth at 100 µM [6]: 67.7%; inhibition of growth at 30 µM (Plasmopara viticola): 100%; inhibition of growth at 30 µM (Phomopsis obscurans [7]): 100% |
| CCCCCCCCCc1cc(=O)c2ccccc2[nH]1 |  |  |  |  |  |  |  |  |  |  |  |  |  | 50% | 37% |  |
| CCCC/C=C/Cc1[nH]c2ccccc2c(=O)c1C | > 50 mg/L | 50.9% | 63.9% | > 50 mg/L | 37.7% | 82.8% | 70.8% | 34.4% | 10 mg/L (≈ 39.2 µM) | > 50 mg/L | 17.1% | 50 mg/L (≈ 196 µM) |  |  |  |  |
| CCCCNC(=O)n1c(NC(=O)OC)nc2ccccc21 [BENOMYL] |  |  |  |  |  |  |  |  |  |  |  |  | 76% | 33% | 77% | inhibition of growth at 100 µM (Phomopsis obscurans [9]): 100% |
| O=C1C2CC=CCC2C(=O)N1SC(Cl)(Cl)Cl (stereo unspecified) [CAPTAN] |  |  |  |  |  |  |  |  |  |  |  |  |  |  | 100% |  |
